One data set deals with apple variety “Fuji”. Put plainly: Coloring test of apple. The following applies: for Coloring of red compared with 5-aminolevulinic acid hydrochloride: in vivo. It is filed as in vivo. As for the experimental part:
The 5-aminolevulinic acid phosphate obtained in Example 1 was dissolved in ion exchange water to the predetermined concentration shown in the following table. A spreader (“Approach BI” manufactured by Maruwa Biochemical) was added to the liquid to a concentration of 0.1% by weight. The pH was adjusted using phosphoric acid.
An aqueous 5-aminolevulinic acid hydrochloride solution was prepared in the same manner, except that the above-described 5-aminolevulinic acid phosphate was changed to 5-aminolevulinic acid hydrochloride and the phosphoric acid for pH adjustment was changed to hydrochloric acid.
The thus prepared liquid was sprayed at a ratio of 2 liters per branch on three main branches where young fruits of an apple variety “Fuji” bored but not yet colored into red (September 15). About 2 months thereafter (November 6), the apples were harvested and their coloring degree was examined. A color meter CR-200 manufactured by MINOLTA CAMERA was used for the measurement of color.
The 5-aminolevulinic acid nitrate obtained in Example 16 was dissolved in ion exchange water to the predetermined concentration shown in Table 16. A spreader (“Approach BI” manufactured by Maruwa Biochemical) was added to the liquid to a concentration of 0.1% by weight. The pH was adjusted using nitric acid.
A solution was prepared in the same manner, except that the above-described 5-aminolevulinic acid nitrate was changed to 5-aminolevulinic acid hydrochloride and the nitric acid was changed to hydrochloric acid.
The 5-aminolevulinic acid p-toluenesulfonate obtained in Example 23 was dissolved in ion exchange water to the predetermined concentration shown in Table 24. A spreader (“Approach B1” manufactured by Maruwa Biochemical) was added to the liquid to a concentration of 0.1% by weight. The pH was adjusted using p-toluenesulfonic acid.
A solution was prepared in the same manner, except that the above-described 5-aminolevulinic acid p-toluenesulfonate was changed to 5-aminolevulinic acid hydrochloride and the p-toluenesulfonic acid was changed to hydrochloric acid.

Data set [1] can be described thus: Chloride ion concentration of aqueous solutions by ion chromatography. It is filed as physicochemical. Particulars: detection limit 0.1 ppm; each sample. As for the experimental part: When chloride ion concentration in the aqueous 5-aminolevulinic acid phosphate solutions used in the above-described examples was measured by ion chromatography under the following conditions, it was equal to or lower than the detection limit (0.1 ppm) in each sample.
The measuring conditions are as follows; A: separation column (IonPac AS12A manufactured by Japan Dionex), B: guard column (IonPac AG12A manufactured by Japan Dionex), C: eluting solution (an aqueous solution containing Na2CO3: 3.0 mmol/l and NaHCO3: 0.5 mmol/l), D: flow rate (1.5 ml/min), E: suppressor (ASRS (recycle mode, current value 50 mA)), F: amount of introduced sample (25 μl), G: temperature of constant temperature oven (35° C.) and H: detector (electric conductivity detector).
When chloride ion concentration in the aqueous 5-aminolevulinic acid nitrate solutions used in the above-described examples was measured by ion chromatography under the following conditions, it was equal to or lower than the detection limit (0.1 ppm) in each sample.
The measuring conditions are as follows: A: separation column (IonPac AS12A manufactured by Japan Dionex), B: guard column (IonPac AG12A manufactured by Japan Dionex), C: eluting solution (an aqueous solution consisting of Na2CO3: 3.0 mmol/l and NaHCO3: 0.5 mmol/l), D: flow rate (1.5 ml/min), E: suppressor (ASRS (recycle mode, current value 50 mA)), F: amount of introduced sample (25 μl), G: temperature of constant temperature oven (35° C.) and H: detector (electric conductivity detector).
When chloride ion concentration in the aqueous 5-aminolevulinic acid p-toluenesulfonate solutions used in the above-described examples was measured by ion chromatography under the following conditions, it was equal to or lower than the detection limit (0.1 ppm) in each sample.

The next data set deals with Chlorella sp. Put plainly: Culturing of plankton. Particulars: for amount of cells: OD 660 nm: 1 mM additive. Type of data set: cell-based. The protocol: 5-Aminolevulinic acid nitrate was added, to a concentration of 1 mM (194 ppm), to 100 ml of a sterilized culture shown in Table 17 (components of the culture), and a Chlorella sp. was inoculated therein and cultured on a reciprocal shaker at 30° C. under aerobic and dark conditions to measure the amount of cells (OD 660).
5-Aminolevulinic acid hydrochloride was added, to a concentration of 1 mM (168 ppm), to 100 ml of the sterilized culture shown in Table 17 (components of the culture), and the Chlorella sp. was inoculated therein and cultured on a reciprocal shaker at 30° C. under aerobic and dark conditions to measure the amount of cells (OD 660).
The Chlorella sp. was inoculated into 100 ml of the sterilized culture shown in Table 17 (components of the culture) and cultured on a reciprocal shaker at 30° C. under aerobic and dark conditions to measure the amount of cells (OD 660).

A short description of data set [2]: Test on the generation of silver chloride precipitation with silver nitrate. Type of data set: physicochemical. Particulars: 0.5 g with 0.5 g of silver nitrate in 10 ml of ion exchange water, 5 minutes. As for the experimental part: In 10 ml of ion exchange water, 0.5 g of 5-aminolevulinic acid phosphate and 0.5 g of silver nitrate were dissolved, the mixture was allowed to stand still for 5 minutes, and conditions of the liquid was observed. […] In this connection, 0.5 g of 5-aminolevulinic acid hydrochloride and 0.5 g of silver nitrate were dissolved in 10 ml of ion exchange water and allowed to stand still for 5 minutes, and conditions of the liquid was observed.
In 10 ml of ion exchange water, 0.5 g of 5-aminolevulinic acid nitrate and 0.5 g of silver nitrate were dissolved, the mixture was allowed to stand still for 5 minutes, and conditions of the liquid was observed.
In this connection, 0.5 g of 5-aminolevulinic acid hydrochloride and 0.5 g of silver nitrate were dissolved in 10 ml of ion exchange water and allowed to stand still for 5 minutes, and conditions of the liquid was observed.
In 10 ml of ion exchange water, 0.5 g of 5-aminolevulinic acid p-toluenesulfonate and 0.5 g of silver nitrate were dissolved, the mixture was allowed to stand still for 5 minutes, and conditions of the liquid was observed.

The subject of a further data set is radish. Put plainly: Plant activating effect, foliar application, radish. Type of data set: in vivo. The following applies: 21 days, 12 seeds. The protocol:
After 600 g of upland soil was packed in a porcelain pot of 12 cm in inner diameter, 12 grains of radish seeds were sowed therein, covered with 5 mm in depth of the soil and allowed to grow in a green house. Foliar application treatment was carried out once a day using the following application liquids. Conditions of the leaves 21 days thereafter were observed.

Data set [3] in a line: Degradation test by sterilization. It is filed as physicochemical. As for the experimental part: Firstly, 50 mg of 5-aminolevulinic acid p-toluenesulfonate or 5-aminolevulinic acid hydrochloride was heat sterilized (121° C., 20 minutes, 1.5 kgf/cm^2). After confirming that there is no change in weight before and after the sterilization, degree of degradation of 5-aminolevulinic acid before and after the sterilization was verified by the method described in a reference (Clin. Chem., 36/8, 1494 (1990)).

Regarding `NCC(=O)CCC(=O)O.O=[N+]([O-])O` [5-aminolevulinic acid nitrate, 5-aminolevulinic Acid Nitrate], the “Coloring, L” value with apple variety “Fuji” (100 ppm (pH 5.0)) worked out at 42.41; with apple variety “Fuji” (200 ppm (pH 4.9)), 42.47. Further, the “Coloring, a” value in the data set on apple variety “Fuji” (100 ppm (pH 5.0)) was found to be 26.51; in the data set on apple variety “Fuji” (200 ppm (pH 4.9)) it was 31.00. Further, the entries for the “Coloring, b” value in the data set on apple variety “Fuji” (100 ppm (pH 5.0)) and in the data set on apple variety “Fuji” (200 ppm (pH 4.9)) were 14.46 and 14.72, respectively. For the same compound, the “Coloring of red compared with 5-aminolevulinic acid hydrochloride” value in the data set with apple variety “Fuji” is given as “Coloring of red was denser”. Besides, the “chloride ion concentration in the aqueous solutions used in the examples” value in data set [1] is recorded as no more than 0.1 ppm. The “effect on Chlorella culture compared with hydrochloride” value with Chlorella sp. was “showed the same effect of 5-aminolevulinic acid hydrochloride”. For the same compound, the “amount of cells: OD 660 nm” value with Chlorella sp. (Culture time 0 day) worked out at 1.8; with Chlorella sp. (Culture time 1 day) it was 6.5; with Chlorella sp. (Culture time 2 day) it was 12.6; in the data set with Chlorella sp. (Culture time 3 day), 15.0. Also, the generation of precipitate entry in data set [2] is “Generation of the precipitate was not found”. Also, the “plants judged 0: Abnormality was not found on the leaf surface” value worked out at 5 plants in the data set on radish (1 ppm in tap water), 6 plants with radish (10 ppm in tap water) and 4 plants with radish (100 ppm in tap water). Further, the “plants judged 1: A region discolored to yellow was found on the leaf surface” value (“plants judged 1: A region discolored” below) in the data set on radish (1 ppm in tap water) was 5 plants; in the data set with radish (10 ppm in tap water), 5 plants; in the data set with radish (100 ppm in tap water), 6 plants. Moreover, the “plants judged 2: A necrotic region was found on the leaf surface” value in the data set with radish (1 ppm in tap water) was 2 plants; in the data set with radish (10 ppm in tap water), 1 plant^ plants; in the data set with radish (100 ppm in tap water) it was 2 plants.
As for `Cc1ccc(S(=O)(=O)O)cc1.NCC(=O)CCC(=O)O` [5-aminolevulinic acid p-toluenesulfonate, 5-aminolevulinic Acid p-toluenesulfonate], in the data set on apple variety “Fuji” (100 ppm (pH 5.0)), the “Coloring, L” value was determined as 42.39; the “Coloring, a” value was 26.44; the “Coloring, b” value stood at 14.69. For the same compound, in the data set with apple variety “Fuji” (200 ppm (pH 4.9)), the “Coloring, L” value came out at 42.36; the “Coloring, a” value worked out at 30.93; the “Coloring, b” value turned out to be 14.34. The “Coloring of red compared with 5-aminolevulinic acid hydrochloride” value in the data set on apple variety “Fuji” is reported as “Coloring of red was denser”. Moreover, in data set [1], the “chloride ion concentration in the aqueous solutions used in the examples” value is on record as no more than 0.1 ppm. Besides, the generation of precipitate result in data set [2] was “Generation of the precipitate was not found”. In the data set on radish (1 ppm in tap water), the “plants judged 0: Abnormality was not found on the leaf surface” value was found to be 6 plants, the “plants judged 1: A region discolored” value is on record as 3 plants and the “plants judged 2: A necrotic region was found on the leaf surface” value is given as 3 plants. Also, in the data set with radish (10 ppm in tap water), the “plants judged 0: Abnormality was not found on the leaf surface” value worked out at 5 plants, the “plants judged 1: A region discolored” value amounted to 5 plants and the “plants judged 2: A necrotic region was found on the leaf surface” value is on record as 2 plants. Also, in the data set with radish (100 ppm in tap water), the “plants judged 0: Abnormality was not found on the leaf surface” value is on record as 7 plants, the “plants judged 1: A region discolored” value is recorded as 4 plants and the “plants judged 2: A necrotic region was found on the leaf surface” value stood at 1 plant^ plants. Moreover, in data set [3], the “degradability by high temperature heat sterilization compared with hydrochloride” value is on record as “lower degradability”. Besides, the “Degradation degree (%)” value in data set [3] (50 mg heat sterilized, 121° C., 20 minutes, 1.5 kgf/cm^2) came out at 2.7%.

Source of the values: patent US8471061B2 (priority 2004, dated 2013).
